Measured values from US20210277015A1, “OGA INHIBITOR COMPOUNDS” (Janssen Pharmaceutica NV, priority 2018, published 2021).

Key:
[1] = molecular target: T1, OGA (Homo sapiens, UniProt O60502); assay: OGA cellular assay (ICC detection of O-GlcNAcylated proteins in HEK293 cells inducible for P301L mutant human Tau); type: cell-based; details: for Emax: HEK293, HEK293 cells inducible for P301L mutant human Tau; for Emax / Cellular Emax (%): maximum defined by Thiamet G at 200 uM; for EC50 / Cellular Emax (%): HEK293 cells inducible for P301L mutant human Tau; for EC50: 6 hours incubation, ICC O-GlcNAcylation, read-out: Cellular hOGA, pEC50 (converted)
T1 construct: endogenous in cells; host or cells: HEK293 cells inducible for P301L mutant human Tau (isoform 2N4R)
T1 sequence (O60502 1-916): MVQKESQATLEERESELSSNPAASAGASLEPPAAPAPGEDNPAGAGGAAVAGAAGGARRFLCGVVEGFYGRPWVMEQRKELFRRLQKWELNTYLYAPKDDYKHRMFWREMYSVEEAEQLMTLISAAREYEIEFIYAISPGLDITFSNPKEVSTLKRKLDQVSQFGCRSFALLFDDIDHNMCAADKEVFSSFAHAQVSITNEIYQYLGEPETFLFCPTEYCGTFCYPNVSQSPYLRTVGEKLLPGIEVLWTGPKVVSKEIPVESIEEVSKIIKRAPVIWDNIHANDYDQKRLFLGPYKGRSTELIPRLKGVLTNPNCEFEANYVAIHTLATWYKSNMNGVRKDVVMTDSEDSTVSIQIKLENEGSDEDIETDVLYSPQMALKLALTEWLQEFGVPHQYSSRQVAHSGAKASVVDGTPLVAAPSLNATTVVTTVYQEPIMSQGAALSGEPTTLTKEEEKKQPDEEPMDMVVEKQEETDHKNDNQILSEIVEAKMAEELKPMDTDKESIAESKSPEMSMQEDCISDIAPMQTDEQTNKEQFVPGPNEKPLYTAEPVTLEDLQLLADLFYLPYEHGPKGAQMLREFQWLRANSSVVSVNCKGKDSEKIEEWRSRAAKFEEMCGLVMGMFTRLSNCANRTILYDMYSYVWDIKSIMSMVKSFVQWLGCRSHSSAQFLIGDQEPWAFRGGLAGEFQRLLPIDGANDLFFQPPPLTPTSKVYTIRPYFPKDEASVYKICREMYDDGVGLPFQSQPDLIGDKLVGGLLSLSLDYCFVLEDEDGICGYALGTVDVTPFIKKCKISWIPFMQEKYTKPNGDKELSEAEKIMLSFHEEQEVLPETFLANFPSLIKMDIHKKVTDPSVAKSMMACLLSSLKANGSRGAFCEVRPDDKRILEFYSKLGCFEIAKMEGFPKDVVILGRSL
Method: HEK293 cells inducible for P301L mutant human Tau (isoform 2N4R) were established at Janssen. Thiamet-G was used for both plate validation (high control) and as reference compound (reference EC50 assay validation). OGA inhibition is evaluated through the immunocytochemical (ICC) detection of O-GlcNAcylated proteins by the use of a monoclonal antibody (CTD110.6; Cell Signaling, #9875) detecting O-GlcNAcylated residues as previously described (Dorfmueller et al. 2010 Chemistry & biology, 17:1250). Inhibition of OGA will result in an increase of O-GlcNAcylated protein levels resulting in an increased signal in the experiment. Cell nuclei are stained with Hoechst to give a cell culture quality control and a rough estimate of immediate compounds toxicity, if any. ICC pictures are imaged with a Perkin Elmer Opera Phenix plate microscope and quantified with the provided software Perkin Elmer Harmony 4.1.
Cells were propagated in DMEM high Glucose (Sigma, #D5796) following standard procedures. 2 days before the cell assay cells are split, counted and seeded in Poly-D-Lysine (PDL) coated 96-wells (Greiner, #655946) plate at a cell density of 12,000 cells per cm^2 (4,000 cells per well) in 100 μl of Assay Medium (Low Glucose medium is used to reduce basal levels of GlcNAcylation) (Park et al. 2014 The Journal of biological chemistry 289:13519). At the day of compound test medium from assay plates was removed and replenished with 90 μl of fresh Assay Medium. 10 μl of compounds at a 10 fold final concentration were added to the wells. Plates were centrifuged shortly before incubation in the cell incubator for 6 hours. DMSO concentration was set to 0.2%. Medium is discarded by applying vacuum. For staining of cells medium was removed and cells washed once with 100 μl D-PBS (Sigma, #D8537). From next step onwards unless other stated assay volume was always 50 μl and incubation was performed without agitation and at room temperature. Cells were fixed in 50 μl of a 4% paraformaldehyde (PFA, Alpha aesar, #043368) PBS solution for 15 minutes at room temperature. […] Before analysis samples were washed 2 times manually for 5 minutes in ICC base buffer.
Imaging is performed using Perkin Elmer Phenix Opera using a water 20× objective and recording 9 fields per well. Intensity readout at 488 nm is used as a measure of O-GlcNAcylation level of total proteins in wells. To assess potential toxicity of compounds nuclei were counted using the Hoechst staining. IC50-values are calculated using parametric non-linear regression model fitting. As a maximum inhibition Thiamet G at a 200 uM concentration is present on each plate. In addition, a concentration response of Thiamet G is calculated on each plate.

[2] = molecular target: T2, recombinant human Meningioma Expressed Antigen 5 (MGEA5), also referred to as O-GlcNAcase (OGA) (Homo sapiens, UniProt O60502); assay: OGA biochemical assay (inhibition of FM-GlcNAc hydrolysis, fluorescence); details: FM-GlcNAc substrate; for IC50: 6 h at room temperature, read-out: Enzymatic hOGA, pIC50 (converted); for Emax / Enzymatic Emax (%): maximal effect; for Emax: read-out: Enzymatic Emax (%)
T2 construct: Full length OGA enzyme was purchased at OriGene (cat #TP322411); purchased OriGene TP322411
T2 sequence (O60502 1-916): T1 sequence (O60502 1-916)
Description: The assay is based on the inhibition of the hydrolysis of fluorescein mono-β-D-N-Acetyl-Glucosamine (FM-GlcNAc) (Mariappa et al. 2015, Biochem J 470:255) by the recombinant human Meningioma Expressed Antigen 5 (MGEA5), also referred to as O-GlcNAcase (OGA). The hydrolysis FM-GlcNAc (Marker Gene technologies, cat #M1485) results in the formation of β-D-N-glucosamineacetate and fluorescein. The fluorescence of the latter can be measured at excitation wavelength 485 nm and emission wavelength 538 nm. An increase in enzyme activity results in an increase in fluorescence signal. Full length OGA enzyme was purchased at OriGene (cat #TP322411). The enzyme was stored in 25 mM Tris.HCl, pH 7.3, 100 mM glycine, 10% glycerol at −20° C. Thiamet G and GlcNAcStatin were tested as reference compounds (Yuzwa et al. 2008 Nature Chemical Biology 4:483; Yuzwa et al. 2012 Nature Chemical Biology 8:393). The assay was performed in 200 mM Citrate/phosphate buffer supplemented with 0.005% Tween-20. 35.6 g Na2HPO4 2 H2O (Sigma, #C0759) were dissolved in 1 L water to obtain a 200 mM solution. 19.2 g citric acid (Merck, #1.06580) was dissolved in 1 L water to obtain a 100 mM solution. pH of the sodium phosphate solution was adjusted with the citric acid solution to 7.2. The buffer to stop the reaction consists of a 500 mM Carbonate buffer, pH 11.0. 734 mg FM-GlcNAc were dissolved in 5.48 mL DMSO to obtain a 250 mM solution and was stored at −20° C. OGA was used at a 2 nM concentration and FM-GlcNAc at a 100 uM final concentration. Dilutions were prepared in assay buffer.
50 nl of a compound dissolved in DMSO was dispensed on Black Proxiplate™ 384 Plus Assay plates (Perkin Elmer, #6008269) and 3 μl fl-OGA enzyme mix added subsequently. Plates were pre-incubated for 60 min at room temperature and then 2 μl FM-GlcNAc substrate mix added. […] Plates were briefly centrifuged for 1 min at 1000 rpm and incubate at room temperature for 6 h. To stop the reaction 5 μl STOP buffer were added and plates centrifuge again 1 min at 1000 rpm. Fluorescence was quantified in the Thermo Scientific Fluoroskan Ascent or the PerkinElmer EnVision with excitation wavelength 485 nm and emission wavelength 538 nm.
For analysis a best-fit curve is fitted by a minimum sum of squares method. From this an IC50 value and Hill coefficient was obtained. High control (no inhibitor) and low control (saturating concentrations of standard inhibitor) were used to define the minimum and maximum values.

Cc1cc(C[C@@H]2CCN(C(C)c3nc4c(cc3F)OCCO4)C2)cc(C)n1 (mixture of isomers) [Product 79]
Emax [1]: 85% | EC50 [1]: 0.1 µM | IC50 [2]: 0.00794 µM | Emax [2]: 98%

Cc1cc(C[C@H]2CCN(C(C)c3cnc4c(c3)OCCN4)C2)cc(C)n1 (mixture of isomers) [Product 80]
Emax [1]: 71% | EC50 [1]: 0.398 µM | IC50 [2]: 0.0398 µM | Emax [2]: 101%

COc1cc(C[C@H]2CCN(C(C)c3nc4c(cc3F)CCO4)C2)cc(C)n1 (mixture of isomers) [Product 83]
Emax [1]: 89% | EC50 [1]: 0.0316 µM | IC50 [2]: 0.00501 µM | Emax [2]: 102%

COc1cc(C[C@H]2CCN(C(C)c3ccc4c(n3)OCCC4)C2)cc(C)n1 (mixture of isomers) [Product 86]
Emax [1]: 50% | EC50 [1]: 0.741 µM | IC50 [2]: 0.158 µM | Emax [2]: 101%

COc1cc(C[C@@H]2CCN(C(C)c3nc4c(cc3F)OCCO4)C2)cc(C)n1 (mixture of isomers) [Product 90]
Emax [1]: 90% | EC50 [1]: 0.126 µM | IC50 [2]: 0.0126 µM | Emax [2]: 101%

Cc1cc(CO[C@@H]2CCN(C(C)c3ccc4c(n3)OCCO4)C2)cc(C)n1 (mixture of isomers) [Product 115]
Emax [1]: 9% | EC50 [1]: > 1 µM | IC50 [2]: 0.631 µM | Emax [2]: 94%

Cc1cc(C[C@@H]2CCN(C(C)c3cnc4c(c3)OCCO4)C2)cc(C)n1 (mixture of isomers) [Product 116]
Emax [1]: 20% | EC50 [1]: > 1 µM | IC50 [2]: 0.158 µM | Emax [2]: 97%

Cc1cc(C[C@@H]2CCN(C(C)c3cc4c(cc3F)NCCO4)C2)cc(C)n1 (mixture of isomers) [Product 117]
Emax [1]: 60% | EC50 [1]: 0.316 µM | IC50 [2]: 0.0158 µM | Emax [2]: 99%

Cc1cc(C[C@@H]2CCN(C(C)c3cnc4c(c3)OCCN4)C2)cc(C)n1 (mixture of isomers) [Product 118]
Emax [1]: 49% | EC50 [1]: 0.631 µM | IC50 [2]: 0.0316 µM | Emax [2]: 100%

Cc1cc(OC[C@H]2CCN(C(C)c3nc4c(cc3F)OCCO4)C2)cc(C)n1 (mixture of isomers) [Product 119]
Emax [1]: 59% | EC50 [1]: 0.631 µM | IC50 [2]: 0.1 µM | Emax [2]: 100%

Cc1cc(C[C@H]2CN(C(C)c3ccc4c(n3)OCCO4)C[C@@H]2C)cc(C)n1 (mixture of isomers) [Product 60]
Emax [1]: 44% | EC50 [1]: > 1 µM | IC50 [2]: 0.0794 µM | Emax [2]: 99%

Cc1cc(C[C@H]2CN(C(C)c3ccc4c(n3)OCCO4)C[C@@H]2C)cc(C)n1 (mixture of isomers) [Product 61]
EC50 [1]: 0.794 µM | Cellular Emax (%) [1]: 56% | IC50 [2]: 0.126 µM | Enzymatic Emax (%) [2]: 97%

Cc1cc(O[C@@H]2CCN(C(C)c3ccc4c(n3)OCCO4)C2)cc(C)n1 (mixture of isomers) [Product 73]
Emax [1]: 33% | EC50 [1]: > 1 µM | IC50 [2]: 0.0794 µM | Emax [2]: 99%

COc1cc(C[C@H]2CCN([C@@H](C)c3cc4c(cc3F)NCCO4)C2)cc(C)n1 (racemic) [Product 82]
Emax [1]: 81% | EC50 [1]: 0.251 µM | IC50 [2]: 0.01 µM | Emax [2]: 101%

COc1cc(C[C@H]2CN(C(C)c3ccc4c(n3)OCCO4)C[C@@H]2C)cc(C)n1 (mixture of isomers) [Product 120]
Emax [1]: 36% | EC50 [1]: > 1 µM | IC50 [2]: 0.158 µM | Emax [2]: 100%

COc1cc(C[C@H]2CCN(C(C)c3cc4c(cc3F)OCCO4)C2)cc(C)n1 (single isomer, unassigned) [Product 10]
EC50 [1]: > 1 µM | Cellular Emax (%) [1]: −5% | IC50 [2]: 1.58 µM | Emax [2]: 88%

COc1cc(C[C@H]2CCN(C(C)c3cc4c(cc3F)OCCO4)C2)cc(C)n1 (single isomer, unassigned) [Product 11]
EC50 [1]: 0.2 µM | Cellular Emax (%) [1]: 83% | IC50 [2]: 0.0251 µM | Enzymatic Emax (%) [2]: 102%

Cc1cc(C[C@H]2CCN([C@@H](C)c3ccc4c(c3)OCC4)C2)cc(C)n1 (single isomer, unassigned) [Product 14]
Emax [1]: 74% | EC50 [1]: 0.126 µM | IC50 [2]: 0.0501 µM | Emax [2]: 103%

Cc1cc(O[C@@H]2CCN(C(C)c3nc4c(cc3F)CCO4)C2)cc(C)n1 (single isomer, unassigned) [Product 18]
Cellular Emax (%) [1]: 42% | IC50 [2]: 0.158 µM | Emax [2]: 98%

Cc1cc(O[C@@H]2CCN(C(C)c3nc4c(cc3F)CCO4)C2)cc(C)n1 (single isomer, unassigned) [Product 19]
EC50 [1]: 0.0186 µM | Cellular Emax (%) [1]: 94% | IC50 [2]: 0.00158 µM | Enzymatic Emax (%) [2]: 97%
